Series [1] relates to Cotton (Gossypium indicum). The series is described as follows: Upland foliar application test, crop injury cotton. The format is in vivo. The note with it: foliar application at stage of 2-3 leaves, 50 g ai/a, emulsion, 40th day after spray. Here is the method:
(§1) Resin-made 1/1000-are pots were filled with the soil of an upland field. After they were fertilized, cotton and soybean were seeded and 3 cm soil covering was applied. In addition, amaranth, common lambs-quarters, barnyardgrass, green foxtail, large crabgrass and johnsongrass were seeded and 1 cm soil covering was applied. One day later, a wettable powder prepared from a predetermined amount of each test compound in a similar manner to the procedures described in Formulation Example 1 was diluted with water and then sprayed evenly at an application rate equal to 10 l per are onto the surface of the soil by means of a pressure-operated sprayer. The weeds and crops were allowed to grow in a green house and influence to them were observed on the 50th day after the spray. The degree of damages of each test plant and the degree of injury to each crop were determined by measuring fresh weight in each group and indicated by % calculated according to the following formula. [formula]
(§2) Resin-made 1/1000-are pots were filled with the soil of an upland field. After they were fertilized, cotton and soybean were seeded and 3 cm soil covering was applied. Five days later, amaranth, common lambsquarters, barnyardgrass, green foxtail, large crabgrass and johnsongrass were seeded and 1 cm soil covering was applied. They were allowed to grow in a green house. When each plant grew to the stage of 2-3 leaves, an emulsion formulated from a predetermined amount of each test compound in a similar manner to the procedures described in Formulation Example 11 was diluted with water and then sprayed at a predetermined application rate by means of a pressure-operated sprayer. The application rate was controlled at 5 l per are. Influence to the crops and weeds were observed on the 40th day after the spray of the herbicides. The results are shown in Table 4 in which the degree of damages of each test plant and the degree of injury to each crop are shown in a similar manner to Test 2.

For series [2], the system named is common lambsquarters. The series is described as follows: Upland soil application test, common lambsquarters. It counts as in vivo. The note with it: Chenopodium album, 1200 h; soil application one day after seeding, 50 g ai/a, wettable powder, fresh weight on 50th day after spray; read-out: Herbicidal effects Common lambquarters. Here is the method:
as §1

The test system of series [3] is johnsongrass emerging from rhizome. The series is described as follows: Application test on johnsongrass emerging from rhizome. The format is in vivo. The note with it: foliar application at stage of 4-5 leaves, application rate of active ingredient 20 (unit not given), emulsion, 50th day after spray. Here is the method: as §1
Resin-made 1/1000-are pots were filled with the soil of an upland field. After they were fertilized, rhizome of johnsongrass were transplanted to the pots and 3 cm soil covering was applied. They were allowed to grow in a green house. When each johnsongrass grew to the stage of 4-5 leaves, an emulsion formulated from a predetermined amount of each test compound in a similar manner to the procedures described in Formulation Example 11 was diluted with water and then sprayed at a predetermined application rate by means of a pressure-operated sprayer. The application rate was controlled at 5 l per are. The effect of each compound against the johnsongrass emerging from its rhizome was observed on the 50th day after the spray of the herbicides. The results are shown in Table 5 in which the herbicidal effect against johnsongrass is shown in a similar manner to Test 2.

For series [4], the system named is Amaranth (Amaranthus viridis). The series is described as follows: Upland soil application test, amaranth. It counts as in vivo. The note with it: 1200 h, soil application one day after seeding, 50 g ai/a, wettable powder, fresh weight on 50th day after spray, read-out: Herbicidal effects Amaranth (Amaranthus viridis). Here is the method:
as §1

For series [5], the system named is Amaranth (Amaranthus viridis). The series is described as follows: Upland foliar application test, amaranth. To be noted: 960 h, foliar application at stage of 2-3 leaves, 50 g ai/a, emulsion, 40th day after spray, read-out: Herbicidal effects Amaranth (Amaranthus viridis). It counts as in vivo. Here is the method: as §1, §2
The subject of series [6] is Foxtail (Setaria viridis). The series is described as follows: Upland foliar application test, green foxtail. The format is in vivo. To be noted: 960 h, foliar application at stage of 2-3 leaves, 50 g ai/a, emulsion, 40th day after spray, read-out: Herbicidal effects Foxtail (Setaria viridis). Here is the method:
as §1, §2

Series [7] deals with Cotton (Gossypium indicum). The series is described as follows: Upland soil application test, crop injury cotton. The format is in vivo. To be noted: soil application one day after seeding, 50 g ai/a, wettable powder, fresh weight on 50th day after spray. Here is the method: as §1
Series [8] relates to Johnsongrass. The series is described as follows: Upland foliar application test, johnsongrass. The note with it: Sorghum halepense, 960 h; foliar application at stage of 2-3 leaves, 50 g ai/a, emulsion, 40th day after spray; read-out: Herbicidal effects Johnsongrass. The format is in vivo. Here is the method:
as §2

In series [9] the test system is ALS (acetolactate syntase) from pea seedlings. The series is described as follows: ALS (acetolactate syntase) inhibition test, pea enzyme. The format is biochemical. The note with it: 10,000 ppm (0.5 μg/0.5 ml) of compound; 1 hour at 30° C.; absorbance at 525 nm. Here is the method: (§3) To determine the selectivity in enzyme level between crops and weeds, an ALS inhibition test was conducted using pea as a typical broadleaf crop and barnyardgrass as a representative gramineous weeds.
(§4) After seeds of pea and barnyardgrass were allowed to germinate at 25° C. for 8-14 days in a dark place, partially-purified suspensions (Suspensions A) of acetolactate syntase were separately obtained from the seedlings in accordance with the procedures described in the literature, Plant Physiology, 75, 827-831. In a test tube, 0.5 mg of one of test compounds was weighed, followed by the addition of 0.15 ml of a 20 mM K2 HPO4 solution and 0.25 ml of a reaction substrate medium which consisted of 40 mM of K2 HPO4, 40 mM of sodium pyruvate, 1 mM of TPP, 1 mM of MgCl2 and 20 μM of FAD so that 0.4 ml of a reaction solution (Solution B) was prepared. Added to 0.4 ml of Solution B was 0.1 ml of Suspension A. After the resultant mixture was shaken for 1 hour in a thermostat water bath controlled at 30° C., 50 μl of 6N sulfuric acid were added to terminate the reaction.
(§5) Next, the test tube with the reaction-terminated liquid mixture contained therein was transferred into a thermostat water bath controlled at 60° C. and was heated for 15 minutes. Thereafter, 0.5 ml of a 0.5% creatine solution and 0.5 ml of a 5% alkaline α-naphthol solution were added, and the resultant mixture was maintained at 60° C. for 15 minutes. As a result, the test solution developed a pink-to-red color. After the above operation, the absorbance of the test solution at 525 nm was measured by a spectrophotometer (Absorbance 1 of Test Compound).
(§6) Further, the absorbance (Absorbance 2 of Blank) of a solution obtained by subjecting a portion of Solution B to the above procedures without addition of any test compound and the absorbance (Absorbance 3 of sulfuric acid) of another solution obtained by subjecting another portion of Solution B to the above procedures which using 50 μl of 6N sulfuric acid as a test compound were also measured.

Series [10] relates to Foxtail (Setaria viridis). The series is described as follows: Upland soil application test, green foxtail. The format is in vivo. The note with it: 1200 h, soil application one day after seeding, 50 g ai/a, wettable powder, fresh weight on 50th day after spray, read-out: Herbicidal effects Foxtail (Setaria viridis). Here is the method:
as §1

For series [11], the system named is Soybean (Glycine max). The series is described as follows: Upland foliar application test, crop injury soybean. The format is in vivo. The note with it: foliar application at stage of 2-3 leaves, 50 g ai/a, emulsion, 40th day after spray. Here is the method: as §2
For series [12], the system named is Soybean (Glycine max). The series is described as follows: Upland soil application test, crop injury soybean. It counts as in vivo. To be noted: soil application one day after seeding, 50 g ai/a, wettable powder, fresh weight on 50th day after spray. Here is the method:
as §1

Series [13] relates to ALS (acetolactate syntase) from barnyardgrass seedlings. The series is described as follows: ALS (acetolactate syntase) inhibition test, barnyardgrass enzyme. It counts as biochemical. To be noted: 10,000 ppm (0.5 μg/0.5 ml) of compound; 1 hour at 30° C.; absorbance at 525 nm. Here is the method:
as §3, §4, §5, §6

The subject of series [14] is Barnyardgrass (Echinochloa crusgalli). The series is described as follows: Upland foliar application test, barnyardgrass. The format is in vivo. The note with it: Echinochloa crus-galli, 960 h; foliar application at stage of 2-3 leaves, 50 g ai/a, emulsion, 40th day after spray; read-out: Herbicidal effects Barnyardgrass (Echinochloa crusgalli). Here is the method:
as §2

The test system of series [15] is Crabgrass (Digitaria adscendens). The series is described as follows: Upland soil application test, large crabgrass. It counts as in vivo. The note with it: 1200 h, soil application one day after seeding, 50 g ai/a, wettable powder, fresh weight on 50th day after spray, read-out: Herbicidal effects Crabgrass (Digitaria adscendens). Here is the method: as §1
For series [16], the system named is common lambsquarters. The series is described as follows: Upland foliar application test, common lambsquarters. The format is in vivo. To be noted: Chenopodium album, 960 h; foliar application at stage of 2-3 leaves, 50 g ai/a, emulsion, 40th day after spray; read-out: Herbicidal effects Common lambquarters. Here is the method:
as §2

Series [17] has as its system Crabgrass (Digitaria adscendens). The series is described as follows: Upland foliar application test, large crabgrass. The format is in vivo. The note with it: 960 h, foliar application at stage of 2-3 leaves, 50 g ai/a, emulsion, 40th day after spray, read-out: Herbicidal effects Crabgrass (Digitaria adscendens). Here is the method:
as §1, §2

The test system of series [18] is Johnsongrass. The series is described as follows: Upland soil application test, johnsongrass. To be noted: Sorghum halepense, 1200 h; soil application one day after seeding, 50 g ai/a, wettable powder, fresh weight on 50th day after spray; read-out: Herbicidal effects Johnsongrass. It counts as in vivo. Here is the method:
as §1

Series [19] deals with Barnyardgrass (Echinochloa crusgalli). The series is described as follows: Upland soil application test, barnyardgrass. It counts as in vivo. The note with it: Echinochloa crus-galli, 1200 h; soil application one day after seeding, 50 g ai/a, wettable powder, fresh weight on 50th day after spray; read-out: Herbicidal effects Barnyardgrass (Echinochloa crusgalli). Here is the method: as §1

The text below walks through data of patent publication US5178662A, “Benzaldehyde acetal compounds, preparation process thereof, and herbicidal compositions containing the same as active ingredients” (Mitsui Toatsu Chemicals, Inc., priority 1990, dated 1993).

`COc1cc(OC)nc(Oc2ccccc2C(OC(C)C)OC(C)C)n1` [Compound No. 2]: the “Crop injury Cotton (Gossypium indicum)” value in series [1] and in series [7] was 0% each time. Further, the pest or weed control at 5000 g/ha in [2] was determined as 85%; in series [4], 80%; in series [5], 100%; in [6], 100%; in series [8], 100%; in series [10], 85%. Also, the pest or weed control at 5000 g/ha turned out to be 80% in [14]; 80% in series [15]; 80% in series [16]; 85% in series [17]; 100% in [18]; 80% in [19]. The “Herbicidal effect against johnsongrass emerging from rhizome” value (“Herbicidal effect” below) in series [3] was 95%. Further, the “Enzymoreaction inhibition rate (%) Pea” value in series [9] amounted to 0%. In addition, the “Crop injury Soybean (Glycine max)” value in series [11] and in [12] was 0% in each case. Further, the “Enzymoreaction inhibition rate (%) Barnyardgrass” value in series [13] worked out at 100%.
In the case of `COc1cc(OC)nc(Oc2c(Cl)cccc2C(OC)OC)n1` [Comp. Comp'd E, reference compound], the “Crop injury Cotton (Gossypium indicum)” value in series [1] and in series [7] was 30% throughout. For the same compound, the pest or weed control at 5000 g/ha in series [2] came out at 50%; in series [4], 45%; in series [5] it was 60%; in series [6], 50%; in series [8] it was 30%; in [10], 60%. Also, the pest or weed control at 5000 g/ha in series [14] worked out at 65%; in [15], 60%; in series [16], 65%; in [17], 45%; in [18], 35%; in series [19], 55%. The “Herbicidal effect” value in [3] stood at 5%. Moreover, the “Crop injury Soybean (Glycine max)” value in series [11] and in series [12] was 30% each time.
With `COc1cc(OC)nc(Oc2ccccc2C(OC)OC)n1` [Comp. Comp'd C, 2-(4,6-dimethoxypyrimidin-2-yloxy)benzaldehyde dimethylacetal, reference compound], the “Crop injury Cotton (Gossypium indicum)” value was determined as 50% in [1] and 55% in series [7]. In addition, the pest or weed control at 5000 g/ha worked out at 100% in series [2]; 80% in [4]; 100% in series [5]; 95% in series [6]; 100% in series [8]; 100% in series [10]. Further, the pest or weed control at 5000 g/ha in [14] is 100%; in series [15], 100%; in series [16], 90%; in series [17] it was 90%; in series [18] it was 100%; in series [19] it was 100%. In addition, the “Herbicidal effect” value in series [3] was found to be 40%. Also, the results for the “Crop injury Soybean (Glycine max)” value in series [11] and in series [12] were 40% and 50%, respectively.
In the case of `CCOC(OCC)c1ccccc1Oc1nc(OC)cc(OC)n1` [Comp. Comp'd D, 2-(4,6-dimethoxypyrimidin-2-yloxy)benzaldehyde diethylacetal, reference compound], the “Crop injury Cotton (Gossypium indicum)” value in series [1] amounted to 35%; in series [7], 45%. Moreover, the pest or weed control at 5000 g/ha in [2] came to 100%; in series [4] it was 100%; in series [5], 100%; in series [6] it was 95%; in series [8], 100%; in [10] it was 100%. For the same compound, the pest or weed control at 5000 g/ha in series [14] was found to be 100%; in [15], 85%; in series [16], 90%; in series [17], 90%; in series [18], 100%; in series [19] it was 100%. Besides, in series [3], the “Herbicidal effect” value was 50%. For the same compound, the “Crop injury Soybean (Glycine max)” value in series [11] is given as 35%; in [12], 40%.
